Measured values reported in a compilation of properties of binary mixtures (doi:10.1016/j.molliq.2016.02.018).

Assay: xn = mol fraction of the nth substance listed
Conditions: 101 kPa

CCCC[n+]1ccn(C)c1.O=S(=O)([N-]S(=O)(=O)C(F)(F)F)C(F)(F)F + CC(=O)[O-].CCCC[n+]1ccn(C)c1
x1 = 1
Conditions	electrical conductivity [S/m]	viscosity [mPa·s]
283.15 K	0.207	106
298.15 K	0.404	51
333.15 K	1.18	15.5

CC(=O)[O-].CCCC[n+]1ccn(C)c1 + CCCC[n+]1ccn(C)c1.O=S(=O)([N-]S(=O)(=O)C(F)(F)F)C(F)(F)F
Conditions	electrical conductivity, 283.15 K [S/m]	electrical conductivity, 298.15 K [S/m]	electrical conductivity, 313.15 K [S/m]	electrical conductivity, 314.3 K [S/m]	electrical conductivity, 333.15 K [S/m]	viscosity, 283.15 K [mPa·s]	viscosity, 298.15 K [mPa·s]	viscosity, 313.15 K [mPa·s]	viscosity, 314.3 K [mPa·s]	viscosity, 333.15 K [mPa·s]
x2 = 0	–	0.0522	–	0.146	0.369	–	441	–	132	54.7
x2 = 0.1057	–	0.0683	–	–	–	–	343	–	–	–
x2 = 0.2396	0.0292	0.0856	0.196	–	0.46	817	255	102	–	40.3
x2 = 0.321	–	–	–	0.237	–	–	–	–	70	–
x2 = 0.3662	–	0.109	–	–	0.514	–	192	–	–	34.3
x2 = 0.5245	0.0623	0.153	0.309	0.33	0.639	357	134	62	–	27.9
x2 = 0.6541	0.0888	0.203	–	–	0.755	248	101	–	–	23.5
x2 = 0.8097	0.133	–	–	–	0.932	165	–	–	–	19.4
